Data set [1] deals with transcription/translation (production of the fluorescent protein mCherry). The class given is biochemical, E. coli. Particulars: CFB-produced capistruin supplied at 10 µM; compared to a control that omitted capistruin; fluorescence reporter.
A further data set has as its target T1, carboxypeptidase Y (Saccharomyces cerevisiae, UniProt P00729).
T1 sequence (P00729 112-532): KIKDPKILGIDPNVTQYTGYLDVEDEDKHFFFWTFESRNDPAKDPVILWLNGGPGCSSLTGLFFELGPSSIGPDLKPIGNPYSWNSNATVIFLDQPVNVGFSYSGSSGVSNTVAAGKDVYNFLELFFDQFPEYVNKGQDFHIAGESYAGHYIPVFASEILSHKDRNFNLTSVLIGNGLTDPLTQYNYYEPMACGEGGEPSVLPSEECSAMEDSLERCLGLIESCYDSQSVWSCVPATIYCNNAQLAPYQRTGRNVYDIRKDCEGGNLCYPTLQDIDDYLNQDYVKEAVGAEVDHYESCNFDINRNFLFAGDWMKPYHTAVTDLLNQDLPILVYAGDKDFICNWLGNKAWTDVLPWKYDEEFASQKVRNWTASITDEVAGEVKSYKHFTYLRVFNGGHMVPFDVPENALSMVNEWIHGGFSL
The format is in vitro ADME. Particulars: after 2 h at 95 °C; CFB-produced lasso peptide from native BGC; Figure S7.

The conditions of data set [2]: cited from earlier work.

On to “capistruin (GTPGFQTPDARVISRFGFN; Capistruin; UniProt P0DQM5 29-47, looked up)”, for which, in data set [1], the “reduction in mCherry production” value is on record as 66%.

For burhizin, the “carboxypeptidase Y resistance after prolonged heating” value (shortened to “carboxypeptidase Y resistance”) at carboxypeptidase Y is recorded as “retained protease resistance”.

cellulassin: the “carboxypeptidase Y resistance” value at carboxypeptidase Y is “efficient carboxypeptidase Y digestion”.

Take fusilassin: the “conformation after extended exposure to organic solvent” value in data set [2] is “adopted a branched-cyclic form”. The “carboxypeptidase Y resistance” value on carboxypeptidase Y is given as “efficient carboxypeptidase Y digestion”.

These data come from publication PMC8062304 (Journal of the American Chemical Society, 2021).
